# ChEMBL document CHEMBL1909046, “DrugMatrix in vitro pharmacology data”
# Assays:
# [1] = target: Receptor tyrosine-protein kinase erbB-2 (Homo sapiens, UniProt P04626); format: cell-based; conditions: insect cells;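 also: inhibition of HER2 kinase enzyme activity, measured with Poly(Glu:Tyr) as the phosphorylation substrate; in other assays of this panel Not Active means under 50% inhibition at 10 µM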
# [2] = target: T1, Receptor-type tyrosine-protein phosphatase C (Homo sapiens, UniProt P08575); set-up: species or system Escherichia coli;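 also: inhibition of CD45 enzyme activity measured using DiFMUP as substrate; in other assays of this panel Not Active means under 50% inhibition at 10 µM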
# T1 sequence (P08575 whole entry): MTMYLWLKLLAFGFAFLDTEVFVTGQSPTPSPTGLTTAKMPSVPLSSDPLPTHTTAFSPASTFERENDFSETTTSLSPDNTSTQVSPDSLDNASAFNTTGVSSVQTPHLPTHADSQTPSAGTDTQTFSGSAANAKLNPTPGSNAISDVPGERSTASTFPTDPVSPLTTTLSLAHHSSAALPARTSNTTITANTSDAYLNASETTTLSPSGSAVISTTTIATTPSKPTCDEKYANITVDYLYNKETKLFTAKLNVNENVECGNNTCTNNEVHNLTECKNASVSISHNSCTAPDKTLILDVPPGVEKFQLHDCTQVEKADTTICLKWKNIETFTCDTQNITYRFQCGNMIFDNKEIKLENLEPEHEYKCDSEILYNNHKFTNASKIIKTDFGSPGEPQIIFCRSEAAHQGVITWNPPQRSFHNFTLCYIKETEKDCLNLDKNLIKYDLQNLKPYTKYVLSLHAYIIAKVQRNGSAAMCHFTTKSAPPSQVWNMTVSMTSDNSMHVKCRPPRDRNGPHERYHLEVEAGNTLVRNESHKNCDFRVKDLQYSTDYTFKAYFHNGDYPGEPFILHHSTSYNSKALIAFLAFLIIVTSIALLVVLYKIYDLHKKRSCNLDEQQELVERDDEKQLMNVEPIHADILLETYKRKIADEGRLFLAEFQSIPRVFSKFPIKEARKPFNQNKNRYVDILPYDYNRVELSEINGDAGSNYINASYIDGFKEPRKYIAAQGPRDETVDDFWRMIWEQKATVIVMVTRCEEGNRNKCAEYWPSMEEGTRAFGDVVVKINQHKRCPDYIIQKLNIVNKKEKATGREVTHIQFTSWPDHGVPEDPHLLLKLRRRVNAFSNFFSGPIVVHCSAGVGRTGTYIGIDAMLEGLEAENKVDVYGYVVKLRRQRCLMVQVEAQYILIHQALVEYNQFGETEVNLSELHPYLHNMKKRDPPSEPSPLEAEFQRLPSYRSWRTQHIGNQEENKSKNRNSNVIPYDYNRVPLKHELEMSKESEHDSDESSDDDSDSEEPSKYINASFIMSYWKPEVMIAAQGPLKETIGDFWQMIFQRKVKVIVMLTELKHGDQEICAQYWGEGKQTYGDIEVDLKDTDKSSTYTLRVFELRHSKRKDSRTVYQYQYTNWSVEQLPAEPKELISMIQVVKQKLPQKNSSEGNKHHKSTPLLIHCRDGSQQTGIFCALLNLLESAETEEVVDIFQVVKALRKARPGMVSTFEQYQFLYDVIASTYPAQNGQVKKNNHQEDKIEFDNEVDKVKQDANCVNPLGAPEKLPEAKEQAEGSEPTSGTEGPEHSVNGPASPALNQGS
# [3] = target: T2, B2 bradykinin receptor (Homo sapiens, UniProt P30411); format: cell membranes, Membrane; conditions: chem-1; also: in other assays of this panel Not Active means under 50% inhibition at 10 µM
# T2 sequence (P30411 whole entry): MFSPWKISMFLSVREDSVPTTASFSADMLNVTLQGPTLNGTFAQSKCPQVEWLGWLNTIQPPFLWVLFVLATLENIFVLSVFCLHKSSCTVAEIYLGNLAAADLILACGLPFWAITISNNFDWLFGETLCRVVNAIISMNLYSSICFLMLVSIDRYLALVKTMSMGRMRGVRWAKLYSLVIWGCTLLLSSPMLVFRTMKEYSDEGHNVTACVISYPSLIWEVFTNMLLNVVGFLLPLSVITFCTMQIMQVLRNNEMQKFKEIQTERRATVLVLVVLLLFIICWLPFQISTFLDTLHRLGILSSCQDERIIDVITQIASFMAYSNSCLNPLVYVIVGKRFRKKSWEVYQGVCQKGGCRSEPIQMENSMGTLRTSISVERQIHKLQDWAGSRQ
# [4] = target: T3, Muscarinic acetylcholine receptor M2 (Homo sapiens, UniProt P08172); format: cell membranes, CHO-K1, Membrane; conditions: cho-k1; also: in other assays of this panel Not Active means under 50% inhibition at 10 µM
# T3 sequence (P08172 whole entry): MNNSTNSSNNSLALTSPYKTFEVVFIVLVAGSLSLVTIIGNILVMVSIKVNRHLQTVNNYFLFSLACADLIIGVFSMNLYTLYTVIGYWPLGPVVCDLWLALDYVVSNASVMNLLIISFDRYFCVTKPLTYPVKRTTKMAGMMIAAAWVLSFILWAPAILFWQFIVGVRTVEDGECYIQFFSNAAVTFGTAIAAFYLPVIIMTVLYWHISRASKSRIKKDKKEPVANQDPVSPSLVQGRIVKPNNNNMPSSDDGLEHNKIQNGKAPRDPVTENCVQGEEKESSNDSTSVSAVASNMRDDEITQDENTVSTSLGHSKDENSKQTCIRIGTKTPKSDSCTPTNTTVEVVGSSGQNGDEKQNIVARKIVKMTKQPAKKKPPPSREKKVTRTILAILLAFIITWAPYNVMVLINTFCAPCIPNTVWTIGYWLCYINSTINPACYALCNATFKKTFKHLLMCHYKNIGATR
# [5] = DRUGMATRIX: Sigma2 radioligand binding (ligand: [3H] Ifenprodil); format: cell membranes, Rattus norvegicus, Wistar, Brain, Membrane; conditions: Not Active = under 50% inhibition at 10 µM
# [6] = target: T4, D(4) dopamine receptor (Homo sapiens, UniProt P21917); assay: DRUGMATRIX: Dopamine D4.2 radioligand binding (ligand: [3H] Spiperone); format: cell membranes, CHO-K1, Membrane; conditions: cho-k1; Not Active = under 50% inhibition at 10 µM
# T4 sequence (P21917 whole entry): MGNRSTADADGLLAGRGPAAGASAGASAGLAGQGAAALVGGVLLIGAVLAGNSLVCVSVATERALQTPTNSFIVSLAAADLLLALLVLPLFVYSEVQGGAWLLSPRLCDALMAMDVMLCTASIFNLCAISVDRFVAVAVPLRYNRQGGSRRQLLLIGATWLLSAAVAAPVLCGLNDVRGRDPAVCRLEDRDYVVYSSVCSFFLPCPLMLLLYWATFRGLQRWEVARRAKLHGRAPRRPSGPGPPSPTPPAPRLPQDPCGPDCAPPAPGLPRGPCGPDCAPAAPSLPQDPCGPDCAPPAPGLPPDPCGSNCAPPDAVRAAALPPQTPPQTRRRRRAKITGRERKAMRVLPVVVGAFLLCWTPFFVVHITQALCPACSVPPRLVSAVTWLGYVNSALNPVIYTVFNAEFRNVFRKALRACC
# [7] = target: D(1A) dopamine receptor (Homo sapiens, UniProt P21728); assay: DRUGMATRIX: Dopamine D1 radioligand binding (ligand: [3H] SCH-23390); format: cell membranes, CHO, Membrane; conditions: Not Active = under 50% inhibition at 10 µM
# D(1A) dopamine receptor, sequence (P21728 whole entry): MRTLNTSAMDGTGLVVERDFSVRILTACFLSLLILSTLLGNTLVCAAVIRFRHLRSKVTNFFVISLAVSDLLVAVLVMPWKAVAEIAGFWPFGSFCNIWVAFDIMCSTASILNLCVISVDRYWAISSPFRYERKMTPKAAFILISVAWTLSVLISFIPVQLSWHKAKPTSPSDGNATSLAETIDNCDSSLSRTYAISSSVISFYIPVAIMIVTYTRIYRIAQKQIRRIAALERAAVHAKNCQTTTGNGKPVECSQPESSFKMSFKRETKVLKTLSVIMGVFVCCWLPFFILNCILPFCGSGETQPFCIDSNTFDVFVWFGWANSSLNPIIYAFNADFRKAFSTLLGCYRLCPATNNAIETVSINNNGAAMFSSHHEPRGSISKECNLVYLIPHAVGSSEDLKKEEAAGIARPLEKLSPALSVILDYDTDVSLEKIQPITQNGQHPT
Compound,IC50 [1],IC50 [2],IC50 [3],IC50 [4],IC50 [5],Ki [5],IC50 [6],IC50 ([7]; cho),Ki [1],Ki [2],Ki [3],Ki [4],Ki [6],Ki ([7]; cho),IC50 ([7]; read-out: IC50) [µM],Ki ([7]; read-out: Ki) [µM]
O=C(O)CNCP(=O)(O)O [GLYPHOSATE],Not Active,Not Active,Not Active,Not Active,Not Active,Not Active,Not Active,Not Active,,,,,,,,
CO[C@H]1O[C@@H]2O[C@@]3(C)CC[C@H]4[C@H](C)CC[C@@H]([C@H]1C)[C@@]24OO3,Not Active,Not Active,Not Active,Not Active,Not Active,Not Active,Not Active,Not Active,,,,,,,,
Nc1ccc(C(=O)O)c(O)c1 [AMINOSALICYLIC ACID],Not Active,Not Active,Not Active,Not Active,Not Active,Not Active,Not Active,Not Active,,,,,,,,
Nc1nc(F)nc2c1ncn2[C@@H]1O[C@H](CO)[C@@H](O)[C@@H]1O [FLUDARABINE],Not Active,Not Active,Not Active,Not Active,Not Active,Not Active,Not Active,Not Active,,,,,,,,
CHROMIC CHLORIDE,Not Active,Not Active,Not Active,Not Active,Not Active,Not Active,Not Active,Not Active,Not Active,Not Active,Not Active,Not Active,Not Active,Not Active,,
O=C(O)CO [GLYCOLIC ACID],Not Active,Not Active,Not Active,Not Active,Not Active,Not Active,Not Active,Not Active,,,,,,,,
COC(=O)C[C@](O)(CCC(C)(C)O)C(=O)O[C@@H]1C(OC)=C[C@]23CCCN2CCc2cc4c(cc2[C@H]13)OCO4 [HARRINGTONINE],Not Active,Not Active,Not Active,Not Active,Not Active,Not Active,Not Active,Not Active,,,,,,,,
CC12CCC(CC1=O)C2(C)C (stereo unspecified) [CAMPHOR],Not Active,Not Active,Not Active,Not Active,Not Active,Not Active,Not Active,Not Active,,,,,,,,
CCN1CCN(C(=O)N[C@@H](C(=O)N[C@@H]2C(=O)N3[C@@H]2SC(C)(C)[C@@H]3C(=O)O)c2ccccc2)C(=O)C1=O [PIPERACILLIN],Not Active,Not Active,Not Active,Not Active,Not Active,Not Active,Not Active,Not Active,,,,,,,,
C=CCO [ALLYL ALCOHOL],Not Active,Not Active,Not Active,Not Active,Not Active,Not Active,Not Active,Not Active,,,,,,,,
O=C(O)CCc1nc(-c2ccccc2)c(-c2ccccc2)o1 [OXAPROZIN],Not Active,Not Active,Not Active,Not Active,Not Active,Not Active,Not Active,Not Active,,,,,,,,
c1ccc2sc(SSc3nc4ccccc4s3)nc2c1 [BENZOTHIAZYL DISULFIDE],Not Active,Not Active,Not Active,Not Active,Not Active,Not Active,Not Active,,,,,,,,1.19,0.595
O=C1CN(/N=C/c2ccc([N+](=O)[O-])o2)C(=O)N1 [NITROFURANTOIN],Not Active,Not Active,Not Active,Not Active,Not Active,Not Active,Not Active,Not Active,,,,,,,,
NCC(CC(=O)O)c1ccc(Cl)cc1 (stereo unspecified) [BACLOFEN],Not Active,Not Active,Not Active,Not Active,Not Active,Not Active,Not Active,Not Active,,,,,,,,
OC[C@H]1O[C@@H]2O[C@H]3[C@H](O)[C@@H](O)[C@@H](O[C@H]4[C@H](O)[C@@H](O)[C@@H](O[C@H]5[C@H](O)[C@@H](O)[C@@H](O[C@H]6[C@H](O)[C@@H](O)[C@@H](O[C@H]7[C@H](O)[C@@H](O)[C@@H](O[C@H]8[C@H](O)[C@@H](O)[C@@H](O[C@H]1[C@H](O)[C@H]2O)O[C@@H]8CO)O[C@@H]7CO)O[C@@H]6CO)O[C@@H]5CO)O[C@@H]4CO)O[C@@H]3CO [BETADEX],Not Active,Not Active,Not Active,Not Active,Not Active,Not Active,Not Active,Not Active,,,,,,,,
CC(C)NCC(O)COc1ccc(CC(N)=O)cc1 (stereo unspecified) [ATENOLOL],Not Active,Not Active,Not Active,Not Active,Not Active,Not Active,Not Active,Not Active,,,,,,,,
Cl.NC[C@H]1CC[C@H](C(=O)Oc2ccc(CCC(=O)O)cc2)CC1 [CETRAXATE HYDROCHLORIDE],Not Active,Not Active,Not Active,Not Active,Not Active,Not Active,Not Active,Not Active,,,,,,,,
O=C(NCCN1CCOCC1)c1ccc(Cl)cc1 [MOCLOBEMIDE],Not Active,Not Active,Not Active,Not Active,Not Active,Not Active,Not Active,Not Active,,,,,,,,
